Assay results taken from US4376125A, “Aminobenzlpropranolol and pharmaceutical preparation thereof” (University of Virginia Alumni Patents Foundation, priority 1980, dated 1983).
Read-outs that look alike come from different tables or passages of the source. Blank lines part the entries; values can stand above or below the compound they belong to.

What was measured:
β-adrenergic receptors [1] = target: T1, β-adrenergic receptors (Rattus norvegicus, UniProt P18090); assay: Equilibrium saturation binding of (125I)-iodohydroxybenzylpindolol in treated and washed C6 glioma cells
T1 construct: β-adrenergic receptors in intact living cells; endogenous in cells; host or cells: C6 rat glioma cells, 2B subclone
Excerpt: All washing experiments involving glioma cells utilized this salt solution as the wash medium.
It would be predicted that the occupation of a receptor by a specific ligand should be considered as an effective loss of that receptor provided that the ligand dissociates sufficiently slowly or not at all. […] For all data points, n=3.

[2] = system: isolated atria (β-adrenergic receptors); assay: Contractility of isolated atria, species not distinguished; format: cell-based, rat or guinea pig
Description: For the tests atrial preparations were obtained by excising hearts from 200-250 g male Wistar rats or 300-400 g male Hartley guinea pigs. All of the animals were pretreated with reserpine (5 mg/kg) administered interperitoneally 15-18 hours before the animals were killed by a blow to the back of the neck. Left atria were maintained at 30° C. […] The buffer was vigorously bubbled with 95% O2 -5% CO2. Atria hooked to platinum-iridium electrodes were stimulated at 1 second intervals with 10 msec monophasic pulses at twice the threshold voltage for contractions. Developed tension was recorded on Beckman oscillographic recorders (Dynographs) and the signals processed by a DEC LSI-11 microcomputer. […] The inhibition is time and dose dependent. […] The cumulative dose response curves to (-)-isoproterenol were determined (n=2-3). At the termination of each experiment, maximum tension was determined by exposing atria to 100 μM isobutylmethylxanthine. […] The degree of inhibition was similar to that observed in glioma cells. […] (2) Efficacy was also assessed by using the phosphodiesterase inhibitor, isobutylmethylxanthine, which is able to elicit a maximal response by itself.

[3] = system: β-adrenergic receptors of guinea pig taenia; conditions: receptors photolyzed with isoproterenol or 2-(2-hydroxy-3-isopropylaminopropoxy) iodobenzene; cited from earlier work
[4] = system: cat papillary muscle (β-adrenergic receptors); conditions: cited from earlier work
[5] = system: rat atria (β-adrenergic receptors); assay: Isoproterenol-increased tension development in isolated rat atria; format: cell-based; conditions: for EC50: Rattus norvegicus, control rat atria, read-out: apparent KAct of isoproterenol
Description: (§1) For the tests atrial preparations were obtained by excising hearts from 200-250 g male Wistar rats or 300-400 g male Hartley guinea pigs. All of the animals were pretreated with reserpine (5 mg/kg) administered interperitoneally 15-18 hours before the animals were killed by a blow to the back of the neck. Left atria were maintained at 30° C. […] The buffer was vigorously bubbled with 95% O2 -5% CO2. Atria hooked to platinum-iridium electrodes were stimulated at 1 second intervals with 10 msec monophasic pulses at twice the threshold voltage for contractions. Developed tension was recorded on Beckman oscillographic recorders (Dynographs) and the signals processed by a DEC LSI-11 microcomputer. […] The inhibition is time and dose dependent. […] The cumulative dose response curves to (-)-isoproterenol were determined (n=2-3). At the termination of each experiment, maximum tension was determined by exposing atria to 100 μM isobutylmethylxanthine.

β-adrenergic receptors [6] = target: T1, β-adrenergic receptors; assay: Displacement of specific (125I)-iodohydroxybenzylpindolol binding, acute or after washing, in intact C6 rat glioma cells
Description: For the study involving glioma cells, C6 rat glioma cells, 2B subclone were grown in monolayer cultures by the technique described by Terasaki et al, J. Biol. Chem., 253, 5418-5425 in 16 mm plastic cluster dishes. In all experiments, the cells were changed from Ham's F-10 containing 10% fetal bovine serum growth medium to a simple salt medium containing 130 mM NaCl, 4 mM KCl, 0.6 mM MgSO4, 0.3 mM CaCl2, 5 mM sodium phosphate buffer (pH 7.4). All washing experiments involving glioma cells utilized this salt solution as the wash medium.
In other test plates, the cells were pretreated with aminobenzylpropranolol blocking agent and then washed repeatedly over a period of 3 hours at 37° C. before determination of [^125 I]-iodohydroxybenzylpindolol binding. For all points, n=3, which means that each data point is an average of three separate determinations. […] (This value was corrected for competition by (^125 I)-iodohydroxybenzylpindolol).

[7] = system: guinea pig atria (β-adrenergic receptors); assay: Isoproterenol-increased tension development in isolated guinea pig atria; format: cell-based; conditions: for shift in cumulative isoproterenol dose response curve: guinea pig atria
Description: as §1

guinea pig atria = assay: Positive inotropic response of isolated guinea pig atria to histamine; format: cell-based; conditions: guinea pig atria pretreated with aminobenzylpropranolol
Description: Experiments were also conducted to determine the extent of aminobenzylpropranolol antagonism to isoproterenol-stimulated contractility in isolated atria. For the tests atrial preparations were obtained by excising hearts from 200-250 g male Wistar rats or 300-400 g male Hartley guinea pigs. All of the animals were pretreated with reserpine (5 mg/kg) administered interperitoneally 15-18 hours before the animals were killed by a blow to the back of the neck. Left atria were maintained at 30° C. (pH 7.4) in buffer containing: 118 mM NaCl, 4.75 mM KCl, 1.2 mM KH2 PO4, 1.2 mM MgSO4, 5.5 mM dextrose, 25 mM NaHCO3, and 1 mM CaCl2. The buffer was vigorously bubbled with 95% O2 -5% CO2. Atria hooked to platinum-iridium electrodes were stimulated at 1 second intervals with 10 msec monophasic pulses at twice the threshold voltage for contractions. Developed tension was recorded on Beckman oscillographic recorders (Dynographs) and the signals processed by a DEC LSI-11 microcomputer.
FIG. 4 contains the cumulative dose response curves to histamine treated atria (n=2-3).

[8] = system: intracellular cyclic AMP in isoproterenol-treated glioma cells (β-adrenergic receptors); assay: Isoproterenol-stimulated intracellular cyclic AMP accumulation in pretreated, washed C6 glioma cells; format: cell-based, rat; conditions: for increase of apparent activation constant for isoproterenol: 40 minutes, then washed 3 hours at 37° C.
Description: The ability of the present β-adrenergic receptor blocking compound to function as an effective β-adrenergic blocking agent for the selective elimination of cellular β-adrenergic receptors is apparent from the following study on the interaction of aminobenzylpropranolol with glioma cells and mammalian atrium cells. For the study involving glioma cells, C6 rat glioma cells, 2B subclone were grown in monolayer cultures by the technique described by Terasaki et al, J. Biol. Chem., 253, 5418-5425 in 16 mm plastic cluster dishes. In all experiments, the cells were changed from Ham's F-10 containing 10% fetal bovine serum growth medium to a simple salt medium containing 130 mM NaCl, 4 mM KCl, 0.6 mM MgSO4, 0.3 mM CaCl2, 5 mM sodium phosphate buffer (pH 7.4). All washing experiments involving glioma cells utilized this salt solution as the wash medium. In experiments involving the glioma cells, specific (propranolol-displaceable) binding of (^125 I)-iodohydroxybenzylpindolol to C6 rat glioma cells was performed by the method developed by Terasaki et al (see above reference) with the exception that in all solutions phentolamine was omitted, and at the termination of the radioligand binding reaction, 0.1 mM (±)-propranololwas included in the cell wash solution.
In the study glioma cells were treated for 40 minutes with zero, 0.1 μM (Δ) or 1 μM aminobenzylpropranolol and then washed with salt solution for 3 hours at 37° C. After washing, the cells were treated for 20 minutes with ((-)-isoproterenol) and extracted with HCl to determine the amount of cyclic AMP. For all data points, n=3.

[9] = blocked by N-[2-hydroxy-3-(1-naphthoxy)-propyl]-N-bromoacetylethylenediamine
[10] = 1 μM for 50 minutes prior to washing

T1 sequence (P18090 whole entry): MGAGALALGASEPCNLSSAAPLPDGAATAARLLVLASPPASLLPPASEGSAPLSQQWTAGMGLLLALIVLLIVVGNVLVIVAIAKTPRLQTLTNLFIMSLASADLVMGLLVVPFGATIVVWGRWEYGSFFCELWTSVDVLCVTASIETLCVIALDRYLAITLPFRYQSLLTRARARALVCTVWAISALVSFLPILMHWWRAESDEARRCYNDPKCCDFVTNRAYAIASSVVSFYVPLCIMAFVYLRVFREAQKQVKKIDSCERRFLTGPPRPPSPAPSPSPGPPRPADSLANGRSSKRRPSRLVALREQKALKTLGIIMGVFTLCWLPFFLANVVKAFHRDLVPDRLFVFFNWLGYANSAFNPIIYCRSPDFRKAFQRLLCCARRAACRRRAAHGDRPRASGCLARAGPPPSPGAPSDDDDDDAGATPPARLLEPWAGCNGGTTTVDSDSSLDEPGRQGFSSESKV

Compound: CC(C)(Cc1ccc(O)c(I)c1)NCC(O)COc1cccc2[nH]ccc12 (stereo not shown) [(^125 I)-iodohydroxybenzylpindolol, reference compound]
Kd (β-adrenergic receptors [1]; glioma cells, not different between treated and control, read-out: equilibrium dissociation constant (KD) for (125I)-iodohydroxybenzylpindolol): 0.06 nM

effect on tension in absence of inhibitor ([2]; 0.1 μM isoproterenol): maximally effective | EC50 ([5]; first dose response curve): 0.9 nM | EC50 ([5]; second dose response curve): 4.7 nM
Compound: CC(C)NCC(O)c1ccc(O)c(O)c1 (stereo not shown) [isoproterenol, N-isopropylnoradrenaline, reference compound]
desensitization on multiple exposures (decrease in potency for isoproterenol) ([2]; control atria, not pretreated with the inhibitor): small degree of desensitization | maximal relaxation by isoproterenol in photolyzed tissue [3]: maximal relaxation could still be elicited | potency of isoproterenol in photolyzed tissue [3]: potency was decreased | inotropic and cyclic AMP responses to isoproterenol after irreversible block [4, 9]: maximal | potency of isoproterenol after irreversible block [4, 9]: decreased potency

Compound: CC(C)Cn1c(=O)n(C)c(=O)c2[nH]cnc21 [isobutylmethylxanthine, reference compound]
increase in developed tension ([2]; 100 μM isobutylmethylxanthine added to atria treated with 10 μM isoproterenol): less than 5%

inhibition at 0.08 µM (β-adrenergic receptors [1]; 40 min, 80 nM, 40 minutes (37° C.), washed for 3 hours, read-out: maximum binding capacity diminished): 70% | maximum receptor binding (FIG. 2) (β-adrenergic receptors [1]; treated then washed with salt solution): marked reduction | sensitivity to isoproterenol of treated atria ([2]; 0.1 μM or 10 μM pretreatment, washed five times): decreased sensitivity to isoproterenol | efficacy (maximum response) of isoproterenol in treated atria ([2]; aminobenzylpropranolol-treated atria): unchanged | reversal of blockage by high concentrations of isoproterenol ([2]; multiple washes and rechallenges): did not reverse the blockage | maximal level of tension development ([2]; pretreated with 0.1 μM isoproterenol, washed, then 10 μM aminobenzylpropranolol): remained the same | Kd (β-adrenergic receptors [6]; 40 min at 37° C., corrected for competition by (125I)-iodohydroxybenzylpindolol, read-out: apparent KD in blocking one-half of the β-receptors): 8 nM | ability to block β-adrenergic receptors assayed acutely (vs after washing) (β-adrenergic receptors [6]; washed repeatedly over 3 hours at 37° C.): no significant difference
Compound: CC(C)(Cc1ccc(N)cc1)NCC(O)COc1cccc2ccccc12 (stereo not drawn) [aminobenzylpropranolol, 1-(p-amino-α,α-dimethylphenethylamino)-3-(1-naphthoxy)-2-propanol]
effect on affinity of the remaining receptors for (125I)-iodohydroxybenzylpindolol (β-adrenergic receptors [1]; 80 nM, 40 minutes (37° C.), washed for 3 hours): not accomplished by a change in the affinity | inhibitory activity in medium transferred from treated, washed atrium to fresh atrium ([2]; after washing): no inhibitory activity | antagonist potency, displacing (125I)-iodohydroxybenzylpindolol from β-adrenergic receptors (β-adrenergic receptors [6]; intact living glioma cells): relatively potent β-adrenergic antagonist | shift in cumulative isoproterenol dose response curve ([7]; 0.1 μM for 1 hour): 0.5 log | shift in cumulative isoproterenol dose response curve ([7]; 10 μM for 1 hour): 2 log | isoproterenol-increased tension development ([7]; time and dose dependent): inhibits | shift in cumulative isoproterenol dose response curve ([5]; 0.1 μM for 1 hour, rat atria): 0.5 log | fold increase in apparent KAct for isoproterenol ([5]; 1 μM for 5 minutes prior to washing): 1.2 fold | fold increase in apparent KAct for isoproterenol ([5]; 1 μM for 20 minutes prior to washing): 5.2 fold | fold increase in apparent KAct for isoproterenol [5, 10]: 13.5 fold | increase in apparent KAct for isoproterenol [5, 10]: 1.1 log units | rightward shift of isoproterenol dose response curves ([5]; 3 μM for 1 hour, washed 17 hours, 30° C.): 1.5 log units | decrease in inhibition of the isoproterenol response on extended washing ([5]; 3 μM for 1 hour, washed 17 hours, vs parallel washed control tissues): no detectable decrease | shift in cumulative isoproterenol dose response curve ([5]; 10 μM for 1 hour, rat atria): 2 log | onset of the inhibitory action ([5]; rat atria): slow | isoproterenol-increased tension development ([5]; time and dose dependent): inhibits | positive inotropic response to histamine (guinea pig atria): unaltered | maximal attainable level of intracellular cyclic AMP ([8]; 0.1 μM and 1 μM): no change | increase of apparent activation constant for isoproterenol ([8]; 0.1 μM): 0.4 log units | increase of apparent activation constant for isoproterenol ([8]; 1 μM): 1.1 log units | increases in intracellular cyclic AMP in isoproterenol-treated glioma cells ([8]; only at submaximal concentrations of the catecholamine): inhibited

Compound: N-[2-hydroxy-3-(1-naphthoxy)-propyl]-N-bromoacetylethylenediamine
block of receptors ([4]; cat papillary muscle): irreversibly blocked
